Article PMC8863796 (Communications Biology, 2022)
Several values for one entry are separate records, joined by “and”; a condition that tells them apart may be missing. Identical values can stand only once. Entries after “also recorded” stand apart in the source; their conditions may differ. Like-named read-outs stand apart in the source and are kept apart here.

What was measured:
Cytotoxicity assay (XTT) = assay type: cell-based; details: human
Description: Monolayers of 1.5 × 10^4 cells in 96-well plates were treated for 3 days with various concentrations (semi-log dilutions from 1000 to 10 µM) of the antiviral drugs. Then, 5 mg/ml 2,3-bis-(2-methoxy-4-nitro-5-sulfophenyl)-2H-tetrazolium-5-carboxanilide (XTT) in DMEM was added to the cells in the presence of 0.01% N-methyl dibenzopyrazine methyl sulfate (PMS). After incubating for 4 h at 37 °C, the cells were measured in a spectrophotometer at 492 nm and 620 nm.

SARS-CoV-2 [1] = assay: microbe, parasite or virus in culture; assay type: cell-based; details: for virus titer: Calu-3, MOI 0.1, three columns per treatment; for EC25: concentration used in combinations
SARS-CoV-2 [2] = assay type: cell-based; set-up: Response: unit not given here
[3] = molecular target: SARS-CoV-2 exonuclease complex (nsp14/nsp10) (Severe acute respiratory syndrome coronavirus 2, UniProt P0DTD1); assay type: biochemical
[4] = Severe acute respiratory syndrome coronavirus 2, 48 h, Calu-3 cells, MOI 0.1, 48-72 h, PFU in Vero E6, NS5A inhibitor at fixed concentration in combinations
[5] = combined with Ombitasvir, Calu-3 cells
[6] = Drug1 100 nM alone (Drug2 0 nM)
[7] = Drug1 1000 nM alone (Drug2 0 nM)
[8] = Drug1 10000 nM alone (Drug2 0 nM)
[9] = Table S-1, 3 days treatment, XTT, read-out: CC50
[10] = Drug2 100 nM alone (Drug1 0 nM)
[11] = Drug2 1000 nM alone (Drug1 0 nM)
[12] = Drug2 5000 nM alone (Drug1 0 nM)
[13] = 30 nM nsp14/nsp10, 500 nM RNA, 30, 100, 300 µM

NC(=O)c1nc(F)cnc1O [Favipiravir, 6-fluoro-3-hydroxy-2-pyrazinecarboxamide]
CC50 at 3 days (Cytotoxicity assay (XTT)): 670 ± 118 µM
virus titer (SARS-CoV-2 [1]; Drug Concentration 0.01 μM): 8.96E+05 PFU/mL and 1.41E+06 PFU/mL
virus titer (SARS-CoV-2 [1]; Drug Concentration 0.1 μM): 5.76E+05 PFU/mL and 7.04E+05 PFU/mL
virus titer (SARS-CoV-2 [1]; Drug Concentration 1 μM): 4.48E+05 PFU/mL and 5.12E+05 PFU/mL
virus titer (SARS-CoV-2 [1]; Drug Concentration 10 μM): 4.16E+05 PFU/mL and 2.24E+05 PFU/mL
EC50 (SARS-CoV-2 [1]; [4]): 7.8 µM
fold increase of potency (SARS-CoV-2 [1]; by Pibrentasvir (0.1 μM)): tenfold
inhibition of SARS-CoV-2 (SARS-CoV-2 [1]; [5]): 2 log10
reduction of virus replication (SARS-CoV-2 [1]; [5]): 99%
Response (SARS-CoV-2 [2]; Drug1 10 nM alone (Drug2 0 nM)): 10
Response (SARS-CoV-2 [2]; [6]): 49
Response (SARS-CoV-2 [2]; [7]): 63
Response (SARS-CoV-2 [2]; [8]): 70

COC(=O)N[C@H](C(=O)N1CCC[C@H]1c1nc(-c2ccc(-c3ccc(-c4c[nH]c([C@@H]5CCCN5C(=O)[C@@H](NC(=O)OC)C(C)C)n4)cc3)cc2)c[nH]1)C(C)C [Daclatasvir]
CC50 at 3 days (Cytotoxicity assay (XTT); [9]): 38 ± 5 µM
EC25 (SARS-CoV-2 [1]; Calu-3 cells): 0.5 µM
EC50 (SARS-CoV-2 [1]; [4]): 0.7 µM
EC90 (SARS-CoV-2 [1]; [4]): 3.8 µM
Response (percentage of inhibition) (SARS-CoV-2 [2]; Conc1 0 nM, Conc2 100 nM): 3%
Response (percentage of inhibition) (SARS-CoV-2 [2]; Conc1 0 nM, Conc2 500 nM): 10%
Response (percentage of inhibition) (SARS-CoV-2 [2]; Conc1 0 nM, Conc2 1000 nM): 45%
Response (percentage of inhibition) (SARS-CoV-2 [2]; Conc1 0 nM, Conc2 5000 nM): 62%
Response (SARS-CoV-2 [2]; [10]): 3
Response (SARS-CoV-2 [2]; Drug2 500 nM alone (Drug1 0 nM)): 10
Response (SARS-CoV-2 [2]; [11]): 45
Response (SARS-CoV-2 [2]; [12]): 62
combination effect (SynergyFinder) (SARS-CoV-2 [2]; with RDV): additive (between 10 and −10)
combination effect (SynergyFinder) (SARS-CoV-2 [2]; with the other RdRp inhibitors tested (Fig. 8b-d)): synergistic (scores above 10)

COC(=O)N[C@H](C(=O)N1CCC[C@H]1C(=O)Nc1ccc([C@@H]2CC[C@@H](c3ccc(NC(=O)[C@@H]4CCCN4C(=O)[C@@H](NC(=O)OC)C(C)C)cc3)N2c2ccc(C(C)(C)C)cc2)cc1)C(C)C [Ombitasvir]
CC50 at 3 days (Cytotoxicity assay (XTT); [9]): 70 ± 12 µM
EC25 (SARS-CoV-2 [1]; Calu-3 cells): 0.1 µM
Response (percentage of inhibition) (SARS-CoV-2 [2]; Conc1 0 nM, Conc2 10 nM): 2%
Response (percentage of inhibition) (SARS-CoV-2 [2]; Conc1 0 nM, Conc2 100 nM): 20%
Response (percentage of inhibition) (SARS-CoV-2 [2]; Conc1 0 nM, Conc2 1000 nM): 50%
Response (percentage of inhibition) (SARS-CoV-2 [2]; Conc1 0 nM, Conc2 5000 nM): 75%
Response (SARS-CoV-2 [2]; Drug2 10 nM alone (Drug1 0 nM)): 2
Response (SARS-CoV-2 [2]; [10]): 20
Response (SARS-CoV-2 [2]; [11]): 50
Response (SARS-CoV-2 [2]; [12]): 75
combination effect (SynergyFinder) (SARS-CoV-2 [2]; with Favipiravir): synergistic (scores above 10)
combination effect (SynergyFinder) (SARS-CoV-2 [2]; with RDV): synergistic (scores above 10)
combination effect (SynergyFinder) (SARS-CoV-2 [2]; with Sofosbuvir): synergistic (scores above 10)
combination effect (SynergyFinder) (SARS-CoV-2 [2]; with Tenofovir): synergistic (scores above 10)

CCC(CC)COC(=O)[C@H](C)N[P@](=O)(OC[C@H]1O[C@@](C#N)(c2ccc3c(N)ncnn23)[C@H](O)[C@@H]1O)Oc1ccccc1 [Remdesivir]
CC50 at 3 days (Cytotoxicity assay (XTT); [9]): 480 ± 55 µM
EC99 Mean (SARS-CoV-2 [1]; Calu-3 cells, MOI 0.1, 48-72 h, PFU in Vero E6, NS5A inhibitor at fixed concentration in combinations): 1.1 µM
virus titer (SARS-CoV-2 [1]; Drug Concentration 0.01 μM, listed as RDV): 6.40E+05 PFU/mL and 5.76E+05 PFU/mL and 6.08E+05 PFU/mL
virus titer (SARS-CoV-2 [1]; Drug Concentration 0.1 μM, listed as RDV): 3.20E+05 PFU/mL and 1.92E+05 PFU/mL and 2.56E+05 PFU/mL
virus titer (SARS-CoV-2 [1]; Drug Concentration 10 μM): 2.00E+03 PFU/mL
fold improvement of efficacy at the 90% level (SARS-CoV-2 [1]; by Pibrentasvir (0.1 μM)): six-
fold improvement of efficacy at the 99% level (SARS-CoV-2 [1]; by Pibrentasvir (0.1 μM)): threefold
Response (percentage of inhibition) (SARS-CoV-2 [2]; Conc1 1 nM, Conc2 0 nM): 20%
Response (percentage of inhibition) (SARS-CoV-2 [2]; Conc1 10 nM, Conc2 0 nM): 43%
Response (percentage of inhibition) (SARS-CoV-2 [2]; Conc1 100 nM, Conc2 0 nM): 76.92%
Response (percentage of inhibition) (SARS-CoV-2 [2]; Conc1 1000 nM, Conc2 0 nM): 99.13%

CC(C)c1nc(CN(C)C(=O)N[C@H](C(=O)N[C@@H](Cc2ccccc2)C[C@H](O)[C@H](Cc2ccccc2)NC(=O)OCc2cncs2)C(C)C)cs1 [Ritonavir]
inhibition of SARS-CoV-2 exonuclease activity [3, 13]: exonuclease activity was inhibited; also recorded: inhibit the SARS-CoV-2 exonuclease in a concentration-dependent manner, but with less potency than Pibrentasvir and Ombitasvir

CC(C)OC(=O)[C@H](C)N[P@](=O)(OC[C@H]1O[C@@H](n2ccc(=O)[nH]c2=O)[C@](C)(F)[C@@H]1O)Oc1ccccc1 [Sofosbuvir]
CC50 at 3 days (Cytotoxicity assay (XTT); [9]): 512 ± 34 µM
virus titer (SARS-CoV-2 [1]; Drug Concentration 0.01 μM): 6.40E+05 PFU/mL and 1.28E+06 PFU/mL and 9.60E+05 PFU/mL
virus titer (SARS-CoV-2 [1]; Drug Concentration 1 μM): 3.52E+05 PFU/mL
Response (percentage of inhibition) (SARS-CoV-2 [2]; Conc1 10 nM, Conc2 0 nM): 10%
Response (percentage of inhibition) (SARS-CoV-2 [2]; Conc1 100 nM, Conc2 0 nM): 20%
Response (percentage of inhibition) (SARS-CoV-2 [2]; Conc1 1000 nM, Conc2 0 nM): 74.62%
Response (percentage of inhibition) (SARS-CoV-2 [2]; Conc1 10000 nM, Conc2 0 nM): 76.92%

CC(C)OC(=O)OCOP(=O)(CO[C@H](C)Cn1cnc2c(N)ncnc21)OCOC(=O)OC(C)C [Tenofovir, Tenofovir disoproxil]
CC50 at 3 days (Cytotoxicity assay (XTT); [9]): 91 ± 25 µM
virus titer (SARS-CoV-2 [1]; Drug Concentration 1 μM): 1.02E+06 PFU/mL and 5.76E+05 PFU/mL and 7.98E+05 PFU/mL
virus titer (SARS-CoV-2 [1]; Drug Concentration 10 μM): 8.00E+04 PFU/mL and 4.00E+04 PFU/mL and 6.00E+04 PFU/mL
EC50 (SARS-CoV-2 [1]; [4]): 4.3 µM
fold increase of potency (SARS-CoV-2 [1]; by Pibrentasvir (0.1 μM)): tenfold
Response (SARS-CoV-2 [2]; Drug1 10 nM alone (Drug2 0 nM)): 5
Response (SARS-CoV-2 [2]; [6]): 30
Response (SARS-CoV-2 [2]; [7]): 58.46
Response (SARS-CoV-2 [2]; [8]): 88.46
excision of the incorporated nucleotide analogue from RNA by the exonuclease ([3]; no inhibitor, 37 °C, 15 min, compared with A-terminated natural RNA): mostly resistant to excision by the SARS-CoV-2 exonuclease

Cc1cccc(C)c1OCC(=O)N[C@@H](Cc1ccccc1)[C@@H](O)C[C@H](Cc1ccccc1)NC(=O)[C@H](C(C)C)N1CCCNC1=O [Lopinavir]
inhibition of SARS-CoV-2 exonuclease activity [3, 13]: exonuclease activity was inhibited; also recorded: inhibit the SARS-CoV-2 exonuclease in a concentration-dependent manner, but with less potency than Pibrentasvir and Ombitasvir

COC(=O)N[C@H](C(=O)N1CCC[C@H]1c1nc2cc([C@H]3CC[C@H](c4cc5nc([C@@H]6CCCN6C(=O)[C@@H](NC(=O)OC)[C@@H](C)OC)[nH]c5cc4F)N3c3cc(F)c(N4CCC(c5ccc(F)cc5)CC4)c(F)c3)c(F)cc2[nH]1)[C@@H](C)OC [Pibrentasvir]
CC50 at 3 days (Cytotoxicity assay (XTT); [9]): 22 ± 3 µM
EC25 (SARS-CoV-2 [1]; Calu-3 cells): 0.1 µM
Response (percentage of inhibition) (SARS-CoV-2 [2]; Conc1 0 nM, Conc2 10 nM): 2%
Response (percentage of inhibition) (SARS-CoV-2 [2]; Conc1 0 nM, Conc2 100 nM): 20%
Response (percentage of inhibition) (SARS-CoV-2 [2]; Conc1 0 nM, Conc2 1000 nM): 50%
Response (percentage of inhibition) (SARS-CoV-2 [2]; Conc1 0 nM, Conc2 5000 nM): 75%
Response (SARS-CoV-2 [2]; Drug2 10 nM alone (Drug1 0 nM)): 2
Response (SARS-CoV-2 [2]; [10]): 20
Response (SARS-CoV-2 [2]; [11]): 50
Response (SARS-CoV-2 [2]; [12]): 75
combination effect (SynergyFinder) (SARS-CoV-2 [2]; with Favipiravir): synergistic (scores above 10)
combination effect (SynergyFinder) (SARS-CoV-2 [2]; with RDV): synergistic (scores above 10)
combination effect (SynergyFinder) (SARS-CoV-2 [2]; with Sofosbuvir): additive (between 10 and −10)
combination effect (SynergyFinder) (SARS-CoV-2 [2]; with Tenofovir): additive (between 10 and −10)
inhibition of SARS-CoV-2 exonuclease activity ([3]; 500 nM RNA, 50 nM nsp14/nsp10, 37 °C, 15 min, varying amounts of inhibitor (Pibrentasvir 1, 10, 20 μM)): reduced exonuclease activity in a concentration-dependent manner
inhibition of SARS-CoV-2 exonuclease activity ([3]; 20 μM, Favipiravir-, NHC- and AT-9010-terminated RNA): exonuclease activity was largely abrogated
inhibition of SARS-CoV-2 exonuclease activity ([3]; 20 µM, RNA with delayed termination by Remdesivir, 400 nM RNA): exonuclease activity was inhibited
inhibition of SARS-CoV-2 exonuclease activity ([3]; 20 µM, Sofosbuvir- and Remdesivir-terminated RNA): exonuclease activity was substantially inhibited
inhibition of SARS-CoV-2 exonuclease activity ([3]; 20 µM, Tenofovir-terminated RNA): exonuclease activity was almost completely eliminated
